Values quoted from earlier work, collected in patent US8729014B2, “Specific HCV NS3 protease inhibitors” (RFS Pharma, LLC, priority 2010, dated 2014).

System: HepG2 cells
Conditions: HepG2 cells incubated with 10 μM; cited from earlier work

O=c1[nH]c(=O)n([C@@H]2O[C@H](CO)[C@@H](O)[C@@H]2F)cc1I [fialuridine, 1,2′-deoxy-2′-fluoro-1-D-arabinofuranosly-5-iodo-uracil]
morphological changes in mitochondria (electron micrographs): enlarged mitochondria with morphological changes consistent with mitochondrial dysfunction
